Results from PMC12457209, “Jianpi‐Huogu Prescription Repairs Nontraumatic Osteonecrosis of the Femoral Head by Inhibiting NAMPT/STK11/HMGCR/ACAT1 Axis‐Mediated Lipid Production” (Journal of Cellular and Molecular Medicine, 2025).

Biological target: T1, NMNAT1 (Nicotinamide Nucleotide Adenylyl Transferase 1) (Homo sapiens, UniProt Q9HAN9)
T1 construct: amine-coupled to CM5 chip
Experiment: SPR, Biacore T200, immobilised protein
Type: binding
Details: PBS, 5% DMSO, 0.5% P20, pH 7.4; compound 1.56 to 50 μM

T1 sequence (Q9HAN9 whole entry): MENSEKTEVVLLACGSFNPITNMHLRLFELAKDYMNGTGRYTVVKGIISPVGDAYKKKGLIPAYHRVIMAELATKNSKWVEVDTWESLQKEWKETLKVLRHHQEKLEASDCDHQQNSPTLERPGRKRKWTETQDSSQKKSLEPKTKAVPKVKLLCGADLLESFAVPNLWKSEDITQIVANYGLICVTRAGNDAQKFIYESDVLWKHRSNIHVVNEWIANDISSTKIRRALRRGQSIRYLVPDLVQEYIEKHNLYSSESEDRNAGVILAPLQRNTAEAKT

| SMILES | SPR, Biacore T200, immobilised protein |
| --- | --- |
| COc1cc(/C=C/C(=O)O)ccc1O [ferulic acid] | SPR analysis confirmed direct and specific binding of these compounds to NMNAT1 |
| Nc1nc2c(ncn2[C@@H]2O[C@H](CO)[C@@H](O)[C@H]2O)c(=O)[nH]1 [guanosine] | SPR analysis confirmed direct and specific binding of these compounds to NMNAT1 |
| CCC/C=C1\OC(=O)C2=C1CC[C@@H](O)[C@H]2O [senkyunolide H] | SPR analysis confirmed direct and specific binding of these compounds to NMNAT1 |
| COc1cc(-c2cc(=O)c3c(O)c(O)c(OC)cc3o2)ccc1O [5,6,4′‐trihydroxy‐7,3′‐dimethoxyflavone] | SPR analysis confirmed direct and specific binding of these compounds to NMNAT1 |
